# pIC50, pKi: −log10 of the molar value.
# Key:
# Acinetobacter baumannii [1] = experiment: Antibacterial activity against clinical isolate Acinetobacter baumannii IC 19/09 expressing blaNDM-1 co-expressing blaOXA-64 assessed as meropenem MIC at 40 uM measured after 20 hrs by broth microdilution assay (reference value: 10.65 mg/L); assay type: functional
# [2] = Selectivity ratio of Ki for human recombinant MMP-2 CD to Ki for C-terminal 6His-tagged full length NDM-1 (unknown origin)
# Klebsiella pneumoniae [3] = experiment: Antibacterial activity against clinical isolate Klebsiella pneumoniae 50/20 expressing blaNDM-5 co-expressing blaTEM-1 and blaSHV-1 assessed as meropenem MIC at 40 uM measured after 20 hrs by broth microdilution assay (reference value: 10.65 mg/L); assay type: functional
# Klebsiella pneumoniae [4] = experiment: Antibacterial activity against clinical isolate Klebsiella pneumoniae 50/11 expressing blaNDM-1 co-expressing blaTEM-1/blaSHV-28/blaTEM-1/blaCTX-M-15 and blaOXA-1 assessed as meropenem MIC at 80 uM measured after 20 hrs by broth microdilution assay (reference value: 21.3 mg/L); assay type: functional
# Klebsiella pneumoniae [5] = experiment: Antibacterial activity against clinical isolate Klebsiella pneumoniae ST23213/19 expressing blaNDM-1 co-expressing blaOXA-48/blaSHV-11/blaCTX-M-15 and blaOXA-1 assessed as meropenem MIC at 40 uM measured after 20 hrs by broth microdilution assay (reference value: 10.65 mg/L); assay type: functional
# Escherichia coli [6] = experiment: Antibacterial activity against clinical isolate Escherichia coli K12 J53-ST10 699/15 expressing blaNDM-1 assessed as meropenem MIC at 40 uM measured after 20 hrs by broth microdilution assay (reference value: 10.65 mg/L); assay type: functional
# Klebsiella pneumoniae [7] = experiment: Antibacterial activity against clinical isolate Klebsiella pneumoniae 50/20 expressing blaNDM-5 co-expressing blaTEM-1 and blaSHV-1 assessed as meropenem MIC at 80 uM measured after 20 hrs by broth microdilution assay (reference value: 21.3 mg/L); assay type: functional
# Klebsiella pneumoniae [8] = experiment: Antibacterial activity against clinical isolate Klebsiella pneumoniae 50/11 expressing blaNDM-1 co-expressing blaTEM-1/blaSHV-28/blaTEM-1/blaCTX-M-15 and blaOXA-1 assessed as meropenem MIC at 40 uM measured after 20 hrs by broth microdilution assay (reference value: 10.65 mg/L); assay type: functional
# Klebsiella pneumoniae [9] = experiment: Antibacterial activity against clinical isolate Klebsiella pneumoniae ST1493/10 expressing blaNDM-1 co-expressing blaCMY-2like/blaTEM-1/blaCTX-M-15/blaSHV-28/blaOXA-1 and blaOXA-9 assessed as meropenem MIC at 40 uM measured after 20 hrs by broth microdilution assay (reference value: 10.65 mg/L); assay type: functional
# Escherichia coli [10] = experiment: Antibacterial activity against clinical isolate Escherichia coli 371/12 expressing blaNDM-7 co-expressing blaCTX-M-15 and blaOXA-1 assessed as meropenem MIC at 40 uM measured after 20 hrs by broth microdilution assay (reference value: 10.65 mg/L); assay type: functional
# [11] = biological target: Histone deacetylase 1 (Homo sapiens) (UniProt Q13547); experiment: Inhibition of C-terminal 6His/FLAG-tagged human recombinant full-length HDAC1 (1 to 482(end) residues) at 10 uM using Boc-Lys-(Ac)-AMC as substrate incubated for 10 mins followed by substrate addition measured after 1 hr by fluorescence based analysis relative to control; settings: time 70.0 min
# [12] = Inhibition of GIM1 (unknown origin) incubated for 15 mins by absorbance based microplate reader analysis; design: species or system Bacteria
# [13] = Inhibition of VIM-2 (unknown origin) incubated for 15 mins by absorbance based microplate reader analysis; design: species or system Bacteria
# Escherichia coli [14] = experiment: Antibacterial activity against clinical isolate Escherichia coli K12 J53-ST10 618/15 expressing blaNDM-1 assessed as meropenem MIC at 80 uM measured after 20 hrs by broth microdilution assay (reference value: 21.3 mg/L); assay type: functional
# Escherichia coli [15] = experiment: Antibacterial activity against clinical isolate Escherichia coli ST1012/10 expressing blaNDM-1 co-expressing blaTEM-1/blaCTX-M-15/blaOXA-1 and blaOXA-2 assessed as meropenem MIC at 80 uM measured after 20 hrs by broth microdilution assay (reference value: 21.3 mg/L); assay type: functional
# [16] = biological target: T1, 72 kDa type IV collagenase (Homo sapiens, UniProt P08253); experiment: Inhibition of human recombinant MMP-2 CD at 10 uM using OMNIMMP as substrate incubated for 30 mins by fluorescence based analysis relative to control
# Target sequence in this assay (P08253 110-660 limits assumed): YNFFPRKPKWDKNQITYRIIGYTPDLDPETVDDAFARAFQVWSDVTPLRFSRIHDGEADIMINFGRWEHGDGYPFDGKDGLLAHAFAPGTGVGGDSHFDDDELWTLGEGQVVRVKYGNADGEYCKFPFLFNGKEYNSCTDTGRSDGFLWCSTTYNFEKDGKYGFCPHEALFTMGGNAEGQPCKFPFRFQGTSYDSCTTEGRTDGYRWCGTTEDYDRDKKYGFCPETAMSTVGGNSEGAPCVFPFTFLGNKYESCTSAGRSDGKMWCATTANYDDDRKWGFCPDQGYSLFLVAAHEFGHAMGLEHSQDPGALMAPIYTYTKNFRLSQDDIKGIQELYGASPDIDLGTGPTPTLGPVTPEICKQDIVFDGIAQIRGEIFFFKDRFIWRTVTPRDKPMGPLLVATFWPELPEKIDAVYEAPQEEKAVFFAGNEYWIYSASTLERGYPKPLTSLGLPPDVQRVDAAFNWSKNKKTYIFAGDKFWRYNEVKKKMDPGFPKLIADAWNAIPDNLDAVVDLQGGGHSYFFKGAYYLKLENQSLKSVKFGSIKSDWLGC
# Klebsiella pneumoniae [17] = experiment: Antibacterial activity against clinical isolate Klebsiella pneumoniae ST1493/10 expressing blaNDM-1 co-expressing blaCMY-2like/blaTEM-1/blaCTX-M-15/blaSHV-28/blaOXA-1 and blaOXA-9 assessed as meropenem MIC at 80 uM measured after 20 hrs by broth microdilution assay (reference value: 21.3 mg/L); assay type: functional
# Escherichia coli [18] = experiment: Antibacterial activity against clinical isolate Escherichia coli K12 J53-ST10 684/18 expressing blaNDM-1 co-expressing blaCMY-2 and blaOXA-10 assessed as meropenem MIC at 80 uM measured after 20 hrs by broth microdilution assay (reference value: 21.3 mg/L); assay type: functional
# Acinetobacter baumannii [19] = experiment: Antibacterial activity against clinical isolate Acinetobacter baumannii IC 19/09 expressing blaNDM-1 co-expressing blaOXA-64 assessed as meropenem MIC at 80 uM measured after 20 hrs by broth microdilution assay (reference value: 21.3 mg/L); assay type: functional
# Klebsiella pneumoniae [20] = experiment: Antibacterial activity against clinical isolate Klebsiella pneumoniae 62/07 expressing blaVIM-19 co-expressing blaSHV-1/blaCTX-M-14 and blaCMY-4 assessed as meropenem MIC at 40 uM measured after 20 hrs by broth microdilution assay (reference value: 10.65 mg/L); assay type: functional
# Escherichia coli [21] = experiment: Antibacterial activity against clinical isolate Escherichia coli K12 J53-ST10 684/18 expressing blaNDM-1 co-expressing blaCMY-2 and blaOXA-10 assessed as meropenem MIC at 40 uM measured after 20 hrs by broth microdilution assay (reference value: 10.65 mg/L); assay type: functional
# Escherichia coli [22] = experiment: Antibacterial activity against clinical isolate Escherichia coli K12 J53-ST10 696/17 expressing blaNDM-1 co-expressing blaCMY-4 assessed as meropenem MIC at 80 uM measured after 20 hrs by broth microdilution assay (reference value: 21.3 mg/L); assay type: functional
# Escherichia coli [23] = experiment: Antibacterial activity against clinical isolate Escherichia coli ST1012/10 expressing blaNDM-1 co-expressing blaTEM-1/blaCTX-M-15/blaOXA-1 and blaOXA-2 assessed as meropenem MIC at 40 uM measured after 20 hrs by broth microdilution assay (reference value: 10.65 mg/L); assay type: functional
# [24] = Inhibition of IMP-1 (unknown origin) expressed in Escherichia coli BL21-DE3 incubated for 15 mins by absorbance based microplate reader analysis; design: species or system Bacteria
# Escherichia coli [25] = experiment: Antibacterial activity against clinical isolate Escherichia coli K12 J53-ST10 618/15 expressing blaNDM-1 assessed as meropenem MIC at 40 uM measured after 20 hrs by broth microdilution assay (reference value: 10.65 mg/L); assay type: functional
# Klebsiella pneumoniae [26] = experiment: Antibacterial activity against clinical isolate Klebsiella pneumoniae 62/07 expressing blaVIM-19 co-expressing blaSHV-1/blaCTX-M-14 and blaCMY-4 assessed as meropenem MIC at 80 uM measured after 20 hrs by broth microdilution assay (reference value: 21.3 mg/L); assay type: functional
# Escherichia coli [27] = experiment: Antibacterial activity against clinical isolate Escherichia coli K12 J53-ST10 696/17 expressing blaNDM-1 co-expressing blaCMY-4 assessed as meropenem MIC at 40 uM measured after 20 hrs by broth microdilution assay (reference value: 10.65 mg/L); assay type: functional
# Escherichia coli [28] = experiment: Antibacterial activity against clinical isolate Escherichia coli K12 J53-ST10 699/15 expressing blaNDM-1 assessed as meropenem MIC at 80 uM measured after 20 hrs by broth microdilution assay (reference value: 21.3 mg/L); assay type: functional
# Klebsiella pneumoniae [29] = experiment: Antibacterial activity against clinical isolate Klebsiella pneumoniae ST23213/19 expressing blaNDM-1 co-expressing blaOXA-48/blaSHV-11/blaCTX-M-15 and blaOXA-1 assessed as meropenem MIC at 80 uM measured after 20 hrs by broth microdilution assay (reference value: 21.3 mg/L); assay type: functional
# [30] = biological target: Metallo-beta-lactamase type 2 (Bacteria, UniProt C7C422)
# Description: Inhibition of C-terminal 6His-tagged full length NDM-1 (unknown origin) expressed in Escherichia coli BL21-DE3 using nitrocefin as substrate incubated for 15 mins followed by substrate addition by absorbance based microplate reader analysis
# [31] = biological target: T1, 72 kDa type IV collagenase; experiment: Binding affinity to human recombinant MMP-2 CD assessed as inhibition constant using OMNIMMP as substrate incubated for 30 mins by fluorescence based analysis
# Target sequence in this assay (P08253 whole entry): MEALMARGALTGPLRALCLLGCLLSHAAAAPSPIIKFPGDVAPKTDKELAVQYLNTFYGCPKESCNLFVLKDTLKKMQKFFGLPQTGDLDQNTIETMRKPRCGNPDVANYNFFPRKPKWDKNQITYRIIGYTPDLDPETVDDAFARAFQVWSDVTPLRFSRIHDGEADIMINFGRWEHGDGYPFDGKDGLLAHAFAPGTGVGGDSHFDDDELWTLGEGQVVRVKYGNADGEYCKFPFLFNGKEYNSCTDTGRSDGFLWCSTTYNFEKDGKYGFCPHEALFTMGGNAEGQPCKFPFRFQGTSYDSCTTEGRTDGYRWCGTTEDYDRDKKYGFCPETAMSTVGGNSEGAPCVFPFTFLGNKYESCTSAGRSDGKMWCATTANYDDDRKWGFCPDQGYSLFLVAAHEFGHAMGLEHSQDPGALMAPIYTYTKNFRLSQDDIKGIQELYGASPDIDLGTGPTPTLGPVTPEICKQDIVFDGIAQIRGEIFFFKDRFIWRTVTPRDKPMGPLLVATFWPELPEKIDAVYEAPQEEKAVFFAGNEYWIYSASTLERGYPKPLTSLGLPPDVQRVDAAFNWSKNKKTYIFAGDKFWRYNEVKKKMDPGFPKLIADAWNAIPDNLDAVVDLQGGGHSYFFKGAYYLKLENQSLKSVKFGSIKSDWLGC
# [32] = biological target: Carbonic anhydrase 2 (Homo sapiens) (UniProt P00918); experiment: Inhibition of human CA2 at 10 uM using pNPA as substrate preincubated for 15 mins followed by substrate by absorbance based analysis relative to control
# Escherichia coli [33] = experiment: Antibacterial activity against clinical isolate Escherichia coli 371/12 expressing blaNDM-7 co-expressing blaCTX-M-15 and blaOXA-1 assessed as meropenem MIC at 80 uM measured after 20 hrs by broth microdilution assay (reference value: 21.3 mg/L); assay type: functional
# Sequence of Histone deacetylase 1 (Homo sapiens) (Q13547 whole entry): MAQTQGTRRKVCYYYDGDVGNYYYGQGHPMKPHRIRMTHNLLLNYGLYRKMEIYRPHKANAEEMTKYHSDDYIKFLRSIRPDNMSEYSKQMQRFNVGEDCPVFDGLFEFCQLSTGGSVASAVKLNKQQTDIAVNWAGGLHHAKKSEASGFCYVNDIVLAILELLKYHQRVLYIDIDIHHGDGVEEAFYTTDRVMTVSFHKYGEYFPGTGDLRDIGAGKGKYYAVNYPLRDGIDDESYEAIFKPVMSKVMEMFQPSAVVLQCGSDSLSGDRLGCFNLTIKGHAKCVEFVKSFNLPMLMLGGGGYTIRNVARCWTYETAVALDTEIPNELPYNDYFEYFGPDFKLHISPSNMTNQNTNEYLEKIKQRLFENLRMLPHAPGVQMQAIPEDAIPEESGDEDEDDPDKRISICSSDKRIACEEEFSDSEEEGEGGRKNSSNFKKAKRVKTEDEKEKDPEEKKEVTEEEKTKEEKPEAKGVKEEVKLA
# Sequence of Metallo-beta-lactamase type 2 (C7C422 whole entry): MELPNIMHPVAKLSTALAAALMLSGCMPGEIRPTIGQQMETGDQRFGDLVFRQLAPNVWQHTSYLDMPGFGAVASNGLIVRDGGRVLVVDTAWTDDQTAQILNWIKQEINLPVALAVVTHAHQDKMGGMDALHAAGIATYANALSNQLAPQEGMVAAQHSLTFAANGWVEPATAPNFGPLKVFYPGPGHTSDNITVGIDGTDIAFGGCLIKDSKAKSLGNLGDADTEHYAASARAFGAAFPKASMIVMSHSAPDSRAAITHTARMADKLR
compound,measurement,setting,value
CS(=O)(=O)Nc1cccc2ccc(C(=O)O)nc12,MIC,Acinetobacter baumannii [1],4 µg/mL
same,Ratio Ki,[2],5
same,MIC,Klebsiella pneumoniae [3],≤ 0.125 µg/mL
same,MIC,Klebsiella pneumoniae [4],≤ 0.125 µg/mL
same,MIC,Klebsiella pneumoniae [5],16 µg/mL
same,MIC,Escherichia coli [6],≤ 0.125 µg/mL
same,MIC,Klebsiella pneumoniae [7],≤ 0.125 µg/mL
same,MIC,Klebsiella pneumoniae [8],≤ 0.125 µg/mL
same,MIC,Klebsiella pneumoniae [9],4 µg/mL
same,MIC,Escherichia coli [10],2 µg/mL
same,inhibition,[11],< 5%
same,pIC50,[12],4.30
same,pIC50,[13],6.10
same,MIC,Escherichia coli [14],≤ 0.125 µg/mL
same,MIC,Escherichia coli [15],≤ 0.125 µg/mL
same,inhibition,[16],> 90%
same,MIC,Klebsiella pneumoniae [17],2 µg/mL
same,MIC,Escherichia coli [18],≤ 0.125 µg/mL
same,MIC,Acinetobacter baumannii [19],2 µg/mL
same,MIC,Klebsiella pneumoniae [20],1 µg/mL
same,MIC,Escherichia coli [21],≤ 0.125 µg/mL
same,MIC,Escherichia coli [22],≤ 0.125 µg/mL
same,MIC,Escherichia coli [23],≤ 0.125 µg/mL
same,pIC50,[24],5.14
same,MIC,Escherichia coli [25],≤ 0.125 µg/mL
same,MIC,Klebsiella pneumoniae [26],0.5 µg/mL
same,MIC,Escherichia coli [27],≤ 0.125 µg/mL
same,MIC,Escherichia coli [28],≤ 0.125 µg/mL
same,MIC,Klebsiella pneumoniae [29],16 µg/mL
same,pIC50,[30],5.79
same,pKi,[31],5.39
same,inhibition,[32],< 5%
same,MIC,Escherichia coli [33],0.25 µg/mL
